Data: patent US8916164B2, “Methods of enhancing adjuvaticity of vaccine compositions” (ABIVAX, priority 2007, dated 2014)
Entries after “also recorded” stand apart in the source; their conditions may differ.

Tests used:
[1] = tested on: CD11c+CD8α− and CD11c+CD8α+ dendritic cells; assay: Dendritic cell subsets and maturation (CD40, CD80, CD86) in splenocytes of mice 24 hours after intravenous administration; assay type: in vivo, C57B1/6J mice; conditions: for decrease of both subsets of DCs (CD11c+CD8α− and CD11c+CD8α+) compared to the control: splenocytes; for percentage of CD40+, CD80+ and CD86+ expressing cells in both the CD11c+CD8α− and CD11c+CD8α+ populations: splenocytes (FIGS. 5A-5F)
Procedure: (§1) To test for adjuvant activity of PBS57 in vivo, mice were injected with test compounds and assayed for cell activation and expansion at 24 hours. Four groups of five C57B1/6J mice were each intravenously administered phosphate buffered saline (PBS) with carrier (DMSO alone), 0.97 μg of αGalCer, 1.3 μg of PBS57, or 0.97 μg of PBS83 in a total of 100 μl PBS. 24 hours after administration of the test compound, the mice were sacrificed and blood samples and splenocytes were isolated by standard methods. Percentage of NKT cells in the spleen was evaluated by flow cytometry with staining using anti-TCRαβ-FITC and PE-labeled CD1d-tetramer loaded with PBS-57 (PBS57-tetramer) or without lipid (empty-tetramer). […] The percentage of NKT cells was determined by subtracting the percentage of PBS57-tetramer+ cells from the percentage of empty-tetramer+ cells in the TCRαβ population.
Dendritic cells (DCs) were detected in the splenocytes by flow cytometry by staining with anti-CD11c R-PE (BD Pharmingen) and anti-CD8α FITC (Beckman Coulter). Two subsets of dendritic cells, CD11c+CD8α− and CD11c+CD8α+ populations, were analyzed further. […] To determine if administration of glycolipid induced maturation of the two subsets of dendritic cells, the cells were stained with anti-CD40 Biotin/Stepta APC (BD Bioscience), anti-CD80 Biotin (BD Pharmingen)/Stepta APC (BD Bioscience) and anti-CD86 Biotin (BD Pharmingen)/Stepta APC (BD Bioscience) antibodies and analyzed by flow cytometry. FIGS. 5A and 5B show the percentage of CD40 positive cells in both the CD11c+CD8α− and CD11c+CD8α+ cells, respectively. […] Horizontal lines represent the averages.

[2] = tested on: TCRαβ cells and NKT cells in the spleen; assay: TCRαβ and NKT cell populations in the spleen of mice 24 hours after intravenous administration; assay type: in vivo, C57B1/6J mice; conditions: 0.97 μg αGalCer or 1.3 μg PBS57, 24 hours; for percentage of TCRαβ cells in the spleen: compared with PBS and carrier control (FIG. 4A); for percentage of NKT cells within the TCRαβ population in the spleen: relative to control (FIG. 4B)
Procedure: as §1

[3] = tested on: Ova-specific target cells; assay: In vivo specific cytotoxic T cell (CD8+) response: specific lysis of CFSE-labeled SIINFEKL-loaded target cells in immunized mice; design: species or system C57/B1/6J CD45.2 female mice; conditions: for specific lysis of Ova-specific target cells in the blood, IM versus IV: 400 μg Ova and 1 μg adjuvant in 50 μl PBS, IM or IV, readout day 11 (FIG. 13); for specific lysis of Ova-specific target cells in the blood, intramuscular immunization: IM hind left leg, 400 μg Ova with 1 μg to 10 pg adjuvant, readout day 11 (FIG. 11, FIG. 12); for specific lysis of Ova-specific target cells in the blood, intravenous immunization: 50 μg Ova with varying doses of adjuvant, readout day 11 (FIG. 8, FIG. 9)
[4] = tested on: NKT cells; assay: Expansion of NKT cells in culture of peripheral blood lymphocytes (PBL), flow cytometry on day 7; assay type: cell-based, human; conditions: for percentage of NKT cells in the CD3+ population: PBL of two healthy donors, 10 ng/ml, 100 ng/ml or 1 μg/ml, rhIL-2, day 7 (FIG. 1)
Procedure: PBLs were derived from two healthy donors and grown in RPMI cell culture media with 5% AB serum. Cells were plated on 12-well plates at 2×10^6 PBL/well/2 ml. Wells were treated with negative controls (0.05% Tween20 and 1% DMSO in PBS or 0.05% Tween20 and 10% DMSO in PBS) or the test adjuvants (αGalCer, PBS-20, PBS-25, or PBS-57) at a final concentration of 10 ng/ml, 100 ng/ml or 1 μg/ml. The chemical structures for control compounds αGalCer, PBS-20 and PBS25 are shown below:
All cultures were supplemented with recombinant human IL2 (rhIL-2) to obtain final concentration of 100 UI/ml by day 1. All cells were cultured for 10 days at 37° C. under 5% CO2. On day 7, half the culture medium (1 ml) was removed for NKT analysis. Percentage of NKT cells in the CD3+ population was detected by flow cytometry using fluorescently labeled CD1 tetramers or fluorescently labeled antibodies (anti-CD3, anti-Vβ11, and anti NKT). The NKT population was identified by flow cytometry as the Vβ11+, Tetramer+ and TCRαβ+ population. NKT cell percentage was calculated in each sample by subtracting the Vβ11+ PBS -57-tetramer+ TCRαβ+ from the Vβ11+ empty-tetramer+TCRαβ+.
Peripheral blood lymphocytes were derived from two healthy donors and cultured in RPMI with 5% AB serum. Cells are plated in a 12-well plate with 2×10^6 cells per well per 2 ml media. One well received carrier (0.05% Tween20 and 1% DMSO in PBS) as a negative control, and test wells received αGalCer, PBS-25, PBS-57, or PBS-83 at final concentrations of 1 ng/ml, 10 ng/ml and 100 ng/ml. The structure of PBS-83 is shown below:
All cultures were supplemented with rhIL-2 to obtain a final concentration of 100 UI/ml by day 1, and cultured for 7 days at 37° C. under 5% CO2 conditions. At day 7, the percentage NKT cells was detected by flow cytometry.

[5] = tested on: NKT cells; assay: Increase in NKT cells (day 7 / day 0) in PBL/PBMC cultures from healthy donors; assay type: cell-based; conditions: PBL cultures from human volunteers (FIG. 3)
Procedure: NKT staining was performed on a panel of fourteen healthy donor peripheral blood lymphocytes (PBL) or peripheral blood […] (PBMC) samples. PBLs were isolated from 12 subjects, and PBMCs were isolated from 2 subjects. Each isolated cell sample was split into two samples. The first sample from each donor was stained with 10 μl anti-Vβ11 FITC (Beckman Coulter), 10 μl anti-TCRαβ-PC5 (Beckman Coulter), and 2 μl PE-labeled PBS-57-CD1d-tetramer. The second sample from each donor was stained with 10 μl Vβ11, 10 μl anti-TCRαβ-FITC, and 2 μl PE-labeled empty-CD1d-tetramer.
To determine a percentage increase in NKT cells, the number of NKT cells on day 7 was divided by the number of NKT cells on day 0.

[6] = tested on: INF-γ and IL-4; conditions: in vitro; cited from earlier work
[7] = tested on: tetanus toxoid; assay: Antibody (IgG) response to tetanus toxoid immunization, tetanus toxoid specific ELISA; assay type: in vivo; conditions: mice, IM day 0 and day 15, 10 μg TT with 1 μg PBS57 versus TT alone, blood day 0, 15 and 30 (FIG. 14)
Procedure: IgG titers were determined by standard methods from blood samples drawn on day 0, 15 and 30. The antibody titer was determined by tetanus toxoid specific ELISA.

[8] = tested on: Ova-specific CD8+ T cells; assay: H2Kb-SIINFEKL pentamer staining of CD8+ T cells in blood after immunization with Ova; assay type: in vivo, C57/B1/6J CD45.2 female mice
Procedure: A mouse model was used to test the in vivo specific T cell response (CD8+) elicited by PBS57 in combination with antigen. C57/B1/6J CD45.2 female mice were immunized intramuscularly on day 0 and 14 with antigen (Ovalbumin, Ova, grade VII, Sigma, St. Louis, Mo.) with or without adjuvant, adjuvant alone, or carrier alone (control) in a total of 100 μl PBS carrier. Test adjuvant was 1 μg PBS57 with or without 50 μg Ova. Each group included at least three mice. Blood was collected from each mouse at day 21 and isolated cells were subjected to pentamer staining with H2K^b-SIINFEKL pentamers after blocking the Fc receptor. FACS analysis was performed including only CD8+ cells in the analysis (CD19+ cells were excluded from the analysis to exclude any B cells). […] The results are reported as mean+/−standard deviation of H2K^b-SIINFEKL specific CD8+ T cells in the blood.
A mouse model was used to test the in vivo specific T cell response (CD8+) elicited by PBS57 in combination with antigen as compared to that of αGalCer. C57/B1/6J CD45.2 female mice were immunized subcutaneously on day 0 and 14 with antigen (Ovalbumin, Ova, grade VII, Sigma, St. Louis, Mo.) with or without adjuvant, adjuvant alone, or carrier alone (control) in a total of 100 μl PBS carrier. Test adjuvant was 1 μg PBS57 or αGalCer with or without 50 μg Ova. Each group included at least three mice. […]

Row | SMILES | decrease of both subsets of DCs (CD11c+CD8α− and CD11c+CD8α+) compared to the control [1] | percentage of CD40+, CD80+ and CD86+ expressing cells in both the CD11c+CD8α− and CD11c+CD8α+ populations [1] | percentage of TCRαβ cells in the spleen [2] | percentage of NKT cells within the TCRαβ population in the spleen [2] | specific lysis of Ova-specific target cells in the blood, IM versus IV [3] | specific lysis of Ova-specific target cells in the blood, intramuscular immunization [3] | specific lysis of Ova-specific target cells in the blood, intravenous immunization ([3]; IV) | percentage of NKT cells in the CD3+ population [4] | increase in NKT cells (number on day 7 divided by number on day 0) [5] | release of INF-γ and IL-4 [6] | specific lysis of Ova-specific target cells in the spleen ([3]; 1 μg adjuvant with 50 μg Ova on day 0, target cells day 10, readout day 11 (FIG. 7)) | specific lysis of Ova-specific target cells, varying Ova dose ([3]; IV, 1 μg PBS57 with 50 μg to 10 pg Ova, readout day 11 (FIG. 10)) | antibody (IgG) titer to tetanus toxoid [7] | increase in NKT cells over cells treated with αGalCer ([4]; separate experiment, PBL of two healthy donors, 1, 10 and 100 ng/ml, day 7 (FIG. 2)) | H2Kb-SIINFEKL specific CD8+ T cells in the blood, intramuscular immunization ([8]; IM day 0 and 14, 1 μg PBS57 with 50 μg Ova, compared to Ova alone, blood day 21 (FIG. 15)) | H2Kb-SIINFEKL specific CD8+ T cells in the blood, subcutaneous immunization ([8]; SC day 0 and 14, 1 μg PBS57 with 50 μg Ova, compared to Ova alone or αGalCer and Ova, blood day 21 (FIG. 16))
1 | CCCCCCCCCCCCCCCCCCCCCCCCCC(=O)N[C@@H](COC1OC(CO)C(O)C(O)C1O)[C@H](O)[C@H](O)CCCCCCCCCCCCCC (stereo partly drawn) [αGalCer, α-galactosyceramide, reference compound] | 50% | substantially increased | increase in percentage of TCRαβ cells | decrease in percentage of NKT cells | did not induce a cytotoxic response when injected intramuscularly | not able to generate a specific cytotoxic T cell response; also recorded: can only elicit a cytotoxic response when injected intravenously | dose dependent specific cytotoxic effect; also recorded: elicited a cytotoxic response when injected intravenously at 1 μg-10 ng | expansion of NKT cells | – | – | – | – | – | – | – | –
2 | CCCCCCCCC=CCCCCCCCCCCCCCC(=O)N[C@@H](OC1OC(CNC(C)=O)C(O)C(O)C1O)C(O)[C@H](O)CCCCCCCCCCCCCC (stereo partly drawn) [PBS57] | 50% | substantially increased | increase in percentage of TCRαβ cells | decrease in percentage of NKT cells | caused a cytotoxic response regardless of the route of administration | can elicit a specific cytotoxic response when injected both intravenously and intramuscularly | dose-dependent specific cytotoxic effect | expansion of NKT cells | substantial increase in NKT cells | induce the release of the INF-γ and IL-4 | produced cytotoxic lysis of Ova-specific target cells | dependent on antigen concentration | enhanced the antibody response to TT | at least a two fold increase | increase in Ova-specific CD8+ T cells | increase in Ova-specific CD8+ T cells
